Patent US12410123B2, “N-[8-(2-hydroxybenzoyl)amino]potassium octanoate crystal polymorph, and preparation method therefor and use thereof” (SCIWIND BIOSCIENCES CO., LTD., priority 2020, dated 2025)

How the values were obtained:
Type in all cases: physicochemical
[1] = Solution stability of different crystal forms of PNAC in aqueous solution (500 mg/mL); conditions: 500 mg/mL in purified water
Procedure: The stability differences between different salt forms and different crystal forms in aqueous solution under the condition of high concentration (500 mg/mL) were compared, and the results are shown in Table 5 (there is no difference in the dissolution and solution storage process of the samples of PNAC crystal forms I-IV).

[2] = Solid-state stability of PNAC crystal forms (storage; XRPD and HPLC)
Procedure: The third group was kept under the conditions of 25° C. and 60% relative humidity for 2 weeks to obtain a solid sample, and then the three groups of solid samples were respectively evaluated for physical and chemical stability by XRPD and HPLC assay.
The purity of main peak was calculated by normalization method.

[3] = Stability during preparation (grinding, tableting, airflow crushing; XRPD)
Text: Three groups of solid samples were characterized by XRPD to evaluate their physical stability.

[4] = Airflow crushing (injection pressure 0.4 MPa, pulverization pressure 0.2 MPa)
[5] = solid, 60° C. for 24 h, 40° C. and 75% relative humidity for two weeks, 25° C. and 60% relative humidity for 2 weeks

Structure (SMILES): O=C([O-])CCCCCCCNC(=O)c1ccccc1O.[Na+] [SNAC, monosodium N-[8-(2-hydroxybenzoyl)amino]octanoate]
- storage time at which flocs began to appear in the solution ([1]; 4° C.): 0.5 h
- storage time at which flocs began to appear in the solution ([1]; room temperature): 1 h

Structure (SMILES): O=C([O-])CCCCCCCNC(=O)c1ccccc1O.[K+] [crystal Form I, Potassium N-[8-(2-hydroxybenzoyl)amino]octanoate]
- overall solid-state stability (conclusion from Table 15) [2]: very stable
- crystal form after treatment (XRPD) ([2]; 25° C./60% RH, 2 W): crystal Form II
- crystal form after treatment (XRPD) ([2]; 25° C./75% RH, 2 W): crystal Form II
- crystal form after treatment (XRPD) ([2]; 60° C., 24 h): crystal Form I
- change of crystal form after grinding, tableting and airflow crushing (XRPD) [3]: does not change
- crystal form after treatment (XRPD) [3, 4]: crystal Form I
- crystal form after treatment (XRPD) ([3]; Manual grinding (10 min)): crystal Form I
- crystal form after treatment (XRPD) ([3]; Tableting (pressure of 3 kN)): crystal Form I

Structure (SMILES): O=C([O-])CCCCCCCNC(=O)c1ccccc1O.[K+] [crystal Form II, Potassium N-[8-(2-hydroxybenzoyl)amino]octanoate]
- overall solid-state stability (conclusion from Table 15) [2]: very stable
- crystal form after treatment (XRPD) ([2]; 25° C./60% RH, 2 W): crystal Form II
- crystal form after treatment (XRPD) ([2]; 25° C./75% RH, 2 W): crystal Form II
- crystal form after treatment (XRPD) ([2]; 60° C., 24 h): crystal Form II
- crystal form after storage (XRPD) [2, 5]: the crystal form has not changed
- relative purity (HPLC) after storage [2, 5]: 100%
- change of crystal form after grinding, tableting and airflow crushing (XRPD) [3]: does not change
- crystal form after treatment (XRPD) [3, 4]: crystal Form II
- crystal form after treatment (XRPD) ([3]; Manual grinding (10 min)): crystal Form II
- crystal form after treatment (XRPD) ([3]; Tableting (pressure of 3 kN)): crystal Form II

Structure (SMILES): O=C([O-])CCCCCCCNC(=O)c1ccccc1O.[K+] [crystal Form III, Potassium N-[8-(2-hydroxybenzoyl)amino]octanoate]
- crystal form after treatment (XRPD) ([2]; 25° C./60% RH, 2 W): crystal Form II
- crystal form after treatment (XRPD) ([2]; 25° C./75% RH, 2 W): crystal Form II
- crystal form after treatment (XRPD) ([2]; 60° C., 24 h): crystal Form I

Structure (SMILES): O=C([O-])CCCCCCCNC(=O)c1ccccc1O.[K+] [crystal Form IV, Potassium N-[8-(2-hydroxybenzoyl)amino]octanoate]
- crystal form after treatment (XRPD) ([2]; 25° C./60% RH, 2 W): crystal Form II
- crystal form after treatment (XRPD) ([2]; 25° C./75% RH, 2 W): crystal Form II
- crystal form after treatment (XRPD) ([2]; 60° C., 24 h): crystal Form I
- crystal form after treatment (XRPD) [3, 4]: crystal Form IV
- crystal form after treatment (XRPD) ([3]; Manual grinding (10 min)): crystal Form IV
- crystal form after treatment (XRPD) ([3]; Tableting (pressure of 3 kN)): crystal Form IV
